Literature values in patent US8728493B2, “Polymer based compositions and conjugates of non-steroidal anti-inflammatory drugs” (Nektar Therapeutics, priority 2005, dated 2014).

Settings: non-conjugated drug; conditions not stated

- half-life of non-conjugated ketorolac: approximately 2 hours
SMILES: O=C(c1ccccc1)c1ccc2n1CCC2C(=O)O (stereo not shown) [non-conjugated ketorolac, ketorolac]
